Experimental data: patent publication US5726325A, “Tricyclic compounds” (Kyowa Hakko Kogyo Co., Ltd., priority 1995, dated 1998)

How the values were obtained:
detrusor muscle [1] = test: Test Example 1: relaxation of guinea pig bladder strips contracted with 50 mM KCl; type: cell-based, guinea pig (male albino Hartley); conditions: Cavia porcellus; contraction induced by 50 mM KCl; concentration decreasing detrusor contraction by 50%
Procedure, shortened: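 Mucosa-free detrusor strips from male Hartley guinea pigs were held at 1 g in Krebs-Henseleit, 37°C, 5% CO2/95% O2, pH about 7.4, and contracted with 50 mM KCl. Compound was added cumulatively in half-log steps, 30 min per concentration; IC50 is the concentration giving 50% relaxation of KCl tension.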

[2] = Test Example 3: arterial blood pressure in anesthetized rats, intravenous; type: in vivo, rat (female SD strain); conditions: 1 mg/kg i.v.
Excerpt: (§1) Female SD strain rats (120-180 g) were used as test animals. Each animal was anesthetized by subcutaneous administration of 1 g/kg urethane. A catheter was inserted into the trachea to secure respiration. A polyethylene cannula (PE50) was inserted into the bladder from the entrance of the urethra and the urethra was ligated at the base. A catheter for blood pressure measurement was inserted into the right carotid artery, and a cannula for drug administration was inserted into the right jugular vein. The arterial catheter and the vesical catheter were connected to pressure transducers to measure the blood pressure and the intravesical pressure. After the bladder was stabilized over about 15 minutes, physiological saline was injected into the bladder at a volume of 0.2-0.7 ml to induce the rhythmical contraction almost once a minute. After the contraction of the bladder started, the contraction pattern was stabilized for 30-45 minutes, followed by intravenous administration of a test compound.
(§2) By this examination method, the effect of the test compounds on both blood pressure and vesical contraction can be evaluated. The blood pressure was measured 5, 15, and 30 minutes after the test compound was injected into the vein. Micturition contraction was induced by injecting physiological saline into the bladder. The change of average contraction interval (time between contractions) over 20 minutes was expressed as the relative value based on the pre-administration value which was regarded as 100.

bladder [3] = test: Test Example 3: vesical contraction interval in anesthetized rats, intravenous; type: in vivo, rat (female SD strain); conditions: 1 mg/kg i.v., average over 20 minutes, relative to pre-administration value
Excerpt: as §1, with “After the contraction of the bladder started, the contraction pattern was stabilized for 30-45 minutes, followed by intravenous administration of a test compound.” left out
as §2, with “Micturition contraction was induced by injecting physiological saline into the bladder.” left out

detrusor muscle [4] = test: Test Example 2: relaxation of guinea pig bladder strips, rhythmical contraction induced by 15 mM KCl; type: cell-based, guinea pig (male albino Hartley); conditions: Cavia porcellus, concentration decreasing detrusor contraction by 50%
Procedure, shortened: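 Male Hartley guinea pig detrusor strips, mucosa removed, in Krebs-Henseleit buffer at 37 °C, pH about 7.4, 5% CO2/95% O2, 1 g resting tension. Rhythmic contraction induced with 15 mM KCl; compound added cumulatively in half-log steps, 30 min each; […].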

bladder [5] = test: Test Example 4: micturition contraction interval in rats under partial restraint, oral; type: in vivo, rat (male SD strain); conditions: Rattus norvegicus, 3 mg/kg oral, pre-administration = 100
Excerpt: As a control compound, cromakalim was used.

With `CC(O)(C(=O)Nc1cccc2c1C(=O)c1ccccc1CO2)C(F)(F)F` (stereo not shown) [Compound 1, 1-(3,3,3-Trifluoro-2-hydroxy-2-methylpropanoylamino)-6,11-dihydrodibenz[b,e]oxepin-11-one] as the compound, how does the IC50 (detrusor muscle [1]) read?
The IC50 was 1700 nM.

And the “Change of average arterial blood pressure” value ([2]; 5 min)?
Its value is “+5%”.

What about the “Change of average arterial blood pressure” value ([2]; 15 min) of the same compound?
Its value is “+5%”.

And the “Change of average arterial blood pressure” value ([2]; 30 min)?
The value was “+5%”.

What about the “Change of contraction interval” value (bladder [3]) of the same compound?
The value was “+150%”.

And the IC50 (detrusor muscle [4])?
The IC50 was 2400 nM.

What about the response vs control in vivo at 3 mg/kg (bladder [5]; 1 hr) of the same compound?
Its response vs control in vivo at 3 mg/kg is 136%.

And the response vs control in vivo at 3 mg/kg (bladder [5]; 2 hr)?
The response vs control in vivo at 3 mg/kg was 148%.

And the response vs control in vivo at 3 mg/kg (bladder [5]; 3 hr)?
The response vs control in vivo at 3 mg/kg was 134%.

And the response vs control in vivo at 3 mg/kg (bladder [5]; 4 hr)?
Its response vs control in vivo at 3 mg/kg is 122%.

And the response vs control in vivo at 3 mg/kg (bladder [5]; 5 hr)?
Its response vs control in vivo at 3 mg/kg is 117%.

Which results are given for `CC(O)(C(=O)Nc1cccc2c1C(=O)c1sccc1CO2)C(F)(F)F` (stereo not shown) [Compound 7, 9-(3,3,3-Trifluoro-2-hydroxy-2-methylpropanoylamino)-4,10-dihydrothieno[3,2-c][1]benzoxepin-10-one]?
IC50 (detrusor muscle [1]): 2400 nM; Change of average arterial blood pressure ([2]; 5 min): -4%; Change of average arterial blood pressure ([2]; 15 min): +1%; Change of average arterial blood pressure ([2]; 30 min): +4%; Change of contraction interval (bladder [3]): +186%; IC50 (detrusor muscle [4]): 2100 nM; response vs control in vivo at 3 mg/kg (bladder [5]; 1 hr): 132%; response vs control in vivo at 3 mg/kg (bladder [5]; 2 hr): 141%; response vs control in vivo at 3 mg/kg (bladder [5]; 3 hr): 149%; response vs control in vivo at 3 mg/kg (bladder [5]; 4 hr): 154%; response vs control in vivo at 3 mg/kg (bladder [5]; 5 hr): 146%
